What was measured:
[1] = test system: draining lymph node T cells; test: Draining lymph node T cell IFN-γ after OT1 peptide stimulation; assay type: in vivo, mouse; settings: 1 μg/mL OT1 peptide
Description: Tumor infiltrating leukocytes were resuspended by RPMI 1640 medium at 5×10^6 per mL in 96-well plates. Phorbol-12-myristate-13-acetate (PMA) (2.5 μg/mL) and ionomycin (0.5 μg/mL) were used to stimulate T cells together with brefeldin A were added to the culture medium for 2 hours at 37° C. Cell concentration of total lymphocytes from draining lymph node was adjusted to 5×10^6 per mL in 96-well plate. 1 μg/mL OT-1 (OVA 257-264) peptide was added to the wells and stimulated for 96 hours. Samples were stained with CD45 and CD8 on ice for 30 min. Intracellular staining was performed to quantify IFN-γ and granzyme B production.
Then, lymphocytes from draining lymph node were isolated and stimulated with 1 μg/mL OT1 peptide, and IFN-γ producing cell were analyzed by FACS.

[2] = target: T1, YTHDF1 in 293T cells (Homo sapiens, UniProt Q9BYJ9); test: Cellular thermal shift assay (CETSA) in 293T cells; assay type: cell-based; settings: 100 μM SAA for 4 hours
T1 construct: endogenous in cells; host or cells: 293T (ATCC)
Description: The cellular thermal shift assay (CETSA) was conducted according to the protocol reported previously. 293T cell line (ATCC) used in the assay was cultured at 37° C., 5% CO2, in DMEM culture medium (Life Technologies) containing 10% fetal calf serum (Gibco, U.S.A.), 1% penicillin/streptomycin (Life Technologies). 293T cells were collected after incubated with PBS buffer as control or 100 μM SAA for 4 hours and equally divided into twelve parts, respectively. The divided parts were heated under series of temperature range from 39° C. to 59° C. for 3 minutes and cooled at 4° C. for 3 minutes immediately. Then, the cells were lysed via freeze-thawing with liquid nitrogen and the protein samples were collected by centrifugation. Though adding in SDS loading and boiling at 99° C. for 5 minutes, the samples were prepared for western blot detection. In the western blot assays, GAPDH was used as the internal reference. And the quantitative analysis of the results of the assay was performed via ImageJ software.
Further, the binding of SAA to YTHDF1 in cells was also examined. Cellular thermal shift (CETSA) assay was performed with 293T cell line, which was collected for heating at temperatures as indicated. After incubating the cells with 100 μM SAA for 4 hours, YTHDF1 protein in the incubated 293T cells were examined with western blot. […]

[3] = test system: B16-OVA tumor cells; test: B16-OVA tumor cell proliferation in vitro; assay type: cell-based, mouse; settings: 5×10^4 B16-OVA cells, various doses, 12 hours
Description: In a further experiment, tumor cells were treated with SAA in vitro. Briefly, 5×10^4 B16-OVA tumor cells were treated with SAA of various doses respectively in a 96-well plate. Cell number was counted 12 hours after said SAA treatment.

[4] = test system: classical DCs in draining lymph node; test: Ex vivo cross-priming by DCs sorted from draining lymph node of treated mice; assay type: in vivo, mouse; settings: four DC subtypes from SAA treated B16-OVA bearing mice, day 12
Description: For in vitro cross-presentation study, mature FLT3L-DCs were harvested on day 9 and purified by EasySep Mouse CD11 c Positive Selection Kit II, then treated with 10 μM SAA or DMSO in IMDM medium (contain 10% bovine and 100 ng/mL FLT3L) for 10 h. […] Then antigen-obtained DCs were purified and co-cultured with naïve T cells from OT-1 mice at a ratio of 1:10 for 96 h. The co-culture medium was 1640 RPMI contains 10% fetal bovine with or without 1 μg/mL OT-1 (OVA 257-264) peptide. For ex vivo DCs cross-presentation assay, four types of DCs (migration CD11b DC, migration CD103′ DC, resident CD11b DC and resident CD8^+ DC) were sorted in draining lymph node from SAA treated B16-OVA bearing mice at day 12. These DCs were co-cultured with OT-1 naïve T cells in the ratio of 1:10 for 96 hours with or without OT-1 peptide. Supernatant IFN-γ production was detected via CBA assay.
Further, four types of classical DCs (resident CD11b^+, resident CD8α^+, migratory CD11b^+ and migratory CD103^+) in draining lymph node were sorted from SAA treated B16-OVA bearing wild-type mice on day 12. These DCs were co-cultured with OT-I T cells for 72 hours. Then, IFN-γ production was assessed by IFN-γ cytometric bead array.

[5] = test system: FLT3L-DCs; test: FLT3L-DC direct-priming of OT-I T cells in vitro with OT-I peptide; assay type: cell-based, mouse; settings: 1 μg/mL OT-I peptide
Description: Then antigen-obtained DCs were purified and co-cultured with naïve T cells from OT-1 mice at a ratio of 1:10 for 96 h. The co-culture medium was 1640 RPMI contains 10% fetal bovine with or without 1 μg/mL OT-1 (OVA 257-264) peptide. For ex vivo DCs cross-presentation assay, four types of DCs (migration CD11b DC, migration CD103′ DC, resident CD11b DC and resident CD8^+ DC) were sorted in draining lymph node from SAA treated B16-OVA bearing mice at day 12. These DCs were co-cultured with OT-1 naïve T cells in the ratio of 1:10 for 96 hours with or without OT-1 peptide. Supernatant IFN-γ production was detected via CBA assay.
Dendritic cells can activate T cells through cross-priming and/or direct-priming. In direct-priming process, DCs could stimulate T cells via surface co-stimulatory molecules such as CD80/CD86 or cytokines related with T cell activation. To evaluate whether the direct priming function was also affected after SAA administration, bone marrow derived cells (wildtype or Ythdf1 gene deficient) were cultured with FLT3L for 9 days to get FLT3L-DC and these DCs were treated with 10 μM SAA for 12 hours, then, FLT3L-DCs were co-cultured with necrotic B16-OVA tumor cell for 6 hours. […] IFN-γ production was assessed by IFN-γ cytometric bead array. […] Then, IFN-γ production was assessed by IFN-γ cytometric bead array.

T1 sequence (Q9BYJ9 whole entry): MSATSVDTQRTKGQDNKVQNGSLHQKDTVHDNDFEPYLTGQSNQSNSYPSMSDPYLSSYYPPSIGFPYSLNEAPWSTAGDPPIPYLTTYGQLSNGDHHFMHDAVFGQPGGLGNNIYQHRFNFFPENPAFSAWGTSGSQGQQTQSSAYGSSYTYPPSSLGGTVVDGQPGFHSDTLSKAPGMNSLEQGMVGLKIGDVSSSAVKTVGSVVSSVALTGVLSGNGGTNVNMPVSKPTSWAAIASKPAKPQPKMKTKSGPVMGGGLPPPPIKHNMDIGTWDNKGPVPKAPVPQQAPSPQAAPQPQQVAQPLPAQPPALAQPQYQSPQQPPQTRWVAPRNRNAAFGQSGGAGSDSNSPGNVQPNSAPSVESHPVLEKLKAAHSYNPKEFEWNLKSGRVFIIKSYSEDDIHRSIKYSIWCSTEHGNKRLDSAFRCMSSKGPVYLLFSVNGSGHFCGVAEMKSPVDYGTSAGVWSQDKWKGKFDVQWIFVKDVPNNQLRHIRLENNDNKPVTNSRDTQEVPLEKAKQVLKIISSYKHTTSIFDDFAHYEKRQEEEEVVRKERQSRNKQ

O=C(/C=C/c1ccc(O)c(O)c1/C=C/c1ccc(O)c(O)c1)O[C@H](Cc1ccc(O)c(O)c1)C(=O)O [SAA, Salvianolic Acid A]
IFN-γ production by DLN T cells [1]: much more IFN-γ than DMSO group
CETSA curve shift to the right (YTHDF1 stability) [2]: about 2 degrees
proliferation of tumor cells (cell number) [3]: not affected
cross-priming of T cells (IFN-γ production) [4]: better cross-priming of T cells than DMSO treated group
FLT3L-DC direct-priming function (IFN-γ production) [5]: could not enhance

Reference: patent publication US20240033244A1, “COMPOSITIONS AND METHODS FOR INHIBITING YTHDF1” (SHANGHAI INSTITUTE OF MATERIA MEDICA, CHINESE ACADEMY OF …, priority 2020, published 2024)
